Tests used:
Type in all cases: biochemical
GST-tagged SIK1 = GST-tagged SIK1 (Homo sapiens (Human), UniProt P57059); test: SIK1 inhibition test (ADP-Glo Max Assay); conditions: enzyme 20 nM, AMARA Peptide 200 μM, ATP 1 mM, 2 hours room temperature
In short: (§1)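 ADP formed was detected by luciferase luminescence after a 2 h room-temperature reaction with 1 mM ATP, 5 mM MgCl2 and AMARA peptide at 200 μM (SIK1, SIK2) or 100 μM (SIK3). Final GST-enzyme levels were 20 nM SIK1, 3 nM SIK2 and 100 nM SIK3. IC50 came from 16-point concentration-response data.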

GST-tagged SIK2 = GST-tagged SIK2 (Homo sapiens (Human), UniProt Q9H0K1); test: SIK2 inhibition test (ADP-Glo Max Assay); conditions: enzyme 3 nM, AMARA Peptide 200 μM, ATP 1 mM, 2 hours room temperature
Chain of GST-tagged SIK2 (Q9H0K1 whole entry): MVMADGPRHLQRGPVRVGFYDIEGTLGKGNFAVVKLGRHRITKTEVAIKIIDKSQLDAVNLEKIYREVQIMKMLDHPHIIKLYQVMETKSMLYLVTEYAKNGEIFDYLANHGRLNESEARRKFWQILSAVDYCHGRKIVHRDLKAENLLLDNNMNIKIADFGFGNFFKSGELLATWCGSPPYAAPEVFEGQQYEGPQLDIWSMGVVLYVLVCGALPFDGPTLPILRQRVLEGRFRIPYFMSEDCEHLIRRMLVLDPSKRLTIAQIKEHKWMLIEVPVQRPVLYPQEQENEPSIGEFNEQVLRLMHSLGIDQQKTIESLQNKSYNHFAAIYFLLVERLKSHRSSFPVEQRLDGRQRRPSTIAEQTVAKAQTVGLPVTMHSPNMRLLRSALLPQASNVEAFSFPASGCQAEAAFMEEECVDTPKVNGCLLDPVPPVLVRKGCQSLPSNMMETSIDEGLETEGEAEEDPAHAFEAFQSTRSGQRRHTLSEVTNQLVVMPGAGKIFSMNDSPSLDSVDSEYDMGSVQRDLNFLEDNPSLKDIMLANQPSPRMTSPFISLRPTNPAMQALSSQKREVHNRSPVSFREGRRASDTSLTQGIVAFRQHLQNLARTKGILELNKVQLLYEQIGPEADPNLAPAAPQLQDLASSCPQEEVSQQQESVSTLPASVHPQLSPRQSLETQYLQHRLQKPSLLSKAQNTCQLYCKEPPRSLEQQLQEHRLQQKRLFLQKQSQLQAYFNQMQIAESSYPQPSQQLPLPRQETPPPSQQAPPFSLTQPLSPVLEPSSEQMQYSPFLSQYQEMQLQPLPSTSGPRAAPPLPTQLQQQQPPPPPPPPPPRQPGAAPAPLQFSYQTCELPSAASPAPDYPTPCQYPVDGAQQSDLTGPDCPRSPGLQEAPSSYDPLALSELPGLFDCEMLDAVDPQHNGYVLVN
In short: as §1

GST-tagged SIK3 = GST-tagged SIK3 (Homo sapiens (Human), UniProt Q9Y2K2); test: SIK3 inhibition test (ADP-Glo Max Assay); conditions: enzyme 100 nM, AMARA Peptide 100 μM, ATP 1 mM, 2 hours room temperature
Chain of GST-tagged SIK3 (Q9Y2K2 whole entry): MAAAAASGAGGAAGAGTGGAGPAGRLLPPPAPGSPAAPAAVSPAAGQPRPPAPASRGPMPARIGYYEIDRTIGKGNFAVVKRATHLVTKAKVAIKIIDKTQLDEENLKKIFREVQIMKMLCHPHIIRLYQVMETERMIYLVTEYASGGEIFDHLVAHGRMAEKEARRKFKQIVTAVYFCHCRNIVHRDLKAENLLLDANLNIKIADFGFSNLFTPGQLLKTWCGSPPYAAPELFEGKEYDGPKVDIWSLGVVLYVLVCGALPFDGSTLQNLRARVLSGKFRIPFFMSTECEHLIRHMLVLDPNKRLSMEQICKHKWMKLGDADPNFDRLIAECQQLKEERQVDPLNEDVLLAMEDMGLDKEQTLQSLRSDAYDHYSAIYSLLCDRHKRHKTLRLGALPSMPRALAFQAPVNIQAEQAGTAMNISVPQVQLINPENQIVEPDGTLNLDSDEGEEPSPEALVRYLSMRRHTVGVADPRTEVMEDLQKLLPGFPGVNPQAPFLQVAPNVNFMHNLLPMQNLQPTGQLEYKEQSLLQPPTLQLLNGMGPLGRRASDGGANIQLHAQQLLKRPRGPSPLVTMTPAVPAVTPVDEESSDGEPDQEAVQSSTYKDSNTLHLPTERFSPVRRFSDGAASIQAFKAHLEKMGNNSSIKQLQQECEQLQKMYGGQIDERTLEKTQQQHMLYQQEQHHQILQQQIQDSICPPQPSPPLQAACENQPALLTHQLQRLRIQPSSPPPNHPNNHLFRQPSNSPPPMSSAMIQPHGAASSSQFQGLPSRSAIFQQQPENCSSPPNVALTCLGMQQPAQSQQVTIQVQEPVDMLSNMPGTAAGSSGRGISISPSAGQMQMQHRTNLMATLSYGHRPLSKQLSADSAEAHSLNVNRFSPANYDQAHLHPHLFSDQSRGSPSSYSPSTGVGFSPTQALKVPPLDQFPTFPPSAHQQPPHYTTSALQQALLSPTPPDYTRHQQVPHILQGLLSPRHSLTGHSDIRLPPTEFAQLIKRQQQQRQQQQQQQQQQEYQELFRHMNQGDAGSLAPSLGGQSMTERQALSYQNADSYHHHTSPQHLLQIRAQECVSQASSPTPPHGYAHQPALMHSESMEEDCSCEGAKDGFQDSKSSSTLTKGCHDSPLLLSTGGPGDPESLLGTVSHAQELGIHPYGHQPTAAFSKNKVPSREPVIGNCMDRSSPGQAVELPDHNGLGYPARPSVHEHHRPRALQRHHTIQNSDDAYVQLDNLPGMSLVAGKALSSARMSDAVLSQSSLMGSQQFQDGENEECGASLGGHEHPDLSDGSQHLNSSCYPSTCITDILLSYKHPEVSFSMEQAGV
In short: as §1

Chain of GST-tagged SIK1 (P57059 whole entry): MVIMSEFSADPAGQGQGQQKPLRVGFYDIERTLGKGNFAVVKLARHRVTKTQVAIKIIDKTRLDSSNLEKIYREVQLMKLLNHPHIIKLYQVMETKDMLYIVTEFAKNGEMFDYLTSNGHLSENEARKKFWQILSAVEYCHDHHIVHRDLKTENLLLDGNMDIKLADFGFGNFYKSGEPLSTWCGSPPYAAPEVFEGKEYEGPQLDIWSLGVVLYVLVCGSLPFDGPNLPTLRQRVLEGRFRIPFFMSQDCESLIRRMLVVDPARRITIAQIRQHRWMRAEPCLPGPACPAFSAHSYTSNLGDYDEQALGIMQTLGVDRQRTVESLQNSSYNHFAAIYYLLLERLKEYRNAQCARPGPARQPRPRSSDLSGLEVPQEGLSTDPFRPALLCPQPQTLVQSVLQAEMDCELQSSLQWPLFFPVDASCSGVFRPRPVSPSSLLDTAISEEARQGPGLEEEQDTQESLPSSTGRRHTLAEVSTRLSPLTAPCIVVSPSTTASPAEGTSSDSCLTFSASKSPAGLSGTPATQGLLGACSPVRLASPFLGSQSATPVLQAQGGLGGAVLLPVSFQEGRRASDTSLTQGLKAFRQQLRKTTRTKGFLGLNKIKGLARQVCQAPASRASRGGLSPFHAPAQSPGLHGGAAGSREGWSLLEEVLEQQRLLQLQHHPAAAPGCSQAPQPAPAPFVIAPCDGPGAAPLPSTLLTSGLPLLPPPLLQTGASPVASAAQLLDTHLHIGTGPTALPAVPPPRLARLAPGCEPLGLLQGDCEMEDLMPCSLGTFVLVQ

Compound | IC50 (GST-tagged SIK1) | IC50 (GST-tagged SIK2) | IC50 (GST-tagged SIK3)
COc1cc(-c2c3c(OCc4ccc(C)nc4)cc(-c4cnn(C)c4)cc3nn2C)cc(OC(F)F)c1C(=O)N1CC(O)(C(F)(F)F)C1 [Example 50, [2-(difluoromethoxy)-6-methoxy-4-[2-methyl-6-(1-methylpyrazol-4-yl)-4-[(6-methylpyridin-3-yl)methoxy]indazol-3-yl]phenyl]-[3-hydroxy-3-(trifluoromethyl)azetidin-1-yl]methanone] | 6.8 nM | 5 nM | 17.1 nM
COc1cc(-c2c3c(OCc4ccnnc4)cc(-c4cnn(C)c4)cc3nn2C)cc(OC(F)F)c1C(=O)N1CC(O)(C(F)(F)F)C1 [Example 51, [2-(difluoromethoxy)-6-methoxy-4-[2-methyl-6-(1-methylpyrazol-4-yl)-4-(pyridazin-4-ylmethoxy)indazol-3-yl]phenyl]-[3-hydroxy-3-(trifluoromethyl)azetidin-1-yl]methanone] | 8.6 nM | 8.9 nM | 14.1 nM
COc1cc(-c2c3c(OCc4cnn(C)c4)cc(-c4cnn(C)c4)cc3nn2C)cc(OC(F)F)c1C(=O)N1CC(O)(C(F)(F)F)C1 [Example 52, [2-(difluoromethoxy)-6-methoxy-4-[2-methyl-6-(1-methylpyrazol-4-yl)-4-[(1-methylpyrazol-4-yl)methoxy]indazol-3-yl]phenyl]-[3-hydroxy-3-(trifluoromethyl)azetidin-1-yl]methanone] | 6.2 nM | 6 nM | 9.2 nM
COc1cc(-c2c3c(OCc4nnc(C)o4)cc(-c4cnn(C)c4)cc3nn2C)cc(OC(F)F)c1C(=O)N1CC(O)(C(F)(F)F)C1 [Example 53, [2-(difluoromethoxy)-6-methoxy-4-[2-methyl-4-[(5-methyl-1,3,4-oxadiazol-2-yl)methoxy]-6-(1-methylpyrazol-4-yl)indazol-3-yl]phenyl]-[3-hydroxy-3-(trifluoromethyl)azetidin-1-yl]methanone] | 9.1 nM | 7.3 nM | 13.6 nM
Cn1cc(-c2cc(C#N)c3c(-c4ccc(C(=O)N[C@@H]5CC5(F)F)c(OC(F)F)c4)n(C)nc3c2)cn1 [Example 55, 4-[4-cyano-2-methyl-6-(1-methylpyrazol-4-yl)indazol-3-yl]-N-[(1R)-2,2-difluorocyclopropyl]-2-(difluoromethoxy)benzamide] | 10.4 nM | 3.5 nM | 2.4 nM
COc1cc(-c2c3c(C(F)F)cc(-c4cnn(CC(=O)N(C)C)c4)cc3nn2C)cc(OC(F)F)c1C(=O)N1CC(O)(C(F)(F)F)C1 [Example 60, 2-[4-[3-[3-(difluoromethoxy)-4-[3-hydroxy-3-(trifluoromethyl)azetidin-1-carbonyl]-5-methoxyphenyl]-4-(difluoromethyl)-2-methylindazol-6-yl]pyrazol-1-yl]-N,N-dimethylacetamide] | 6.9 nM | 4.8 nM | 4.9 nM
COc1cc(-c2c3c(C(F)F)cc(-c4cnn(CC(=O)N(C)C)c4)cc3nn2C)cc(OC(F)F)c1C(=O)N1CC(O)(C(F)F)C1 [Example 61, 2-[4-[3-[3-(difluoromethoxy)-4-[3-(difluoromethyl)-3-hydroxyazetidin-1-carbonyl]-5-methoxyphenyl]-4-(difluoromethyl)-2-methylindazol-6-yl]pyrazol-1-yl]-N,N-dimethylacetamide] | 4.7 nM | 7.4 nM | 7.4 nM
COc1cc(-c2c3c(OC(F)F)cc(-c4cn(C)nn4)cc3nn2C)cc(OC(F)F)c1C(=O)N1CC(O)(C(F)F)C1 [Example 63, [2-(difluoromethoxy)-4-[4-(difluoromethoxy)-2-methyl-6-(1-methyltriazol-4-yl)indazol-3-yl]-6-methoxyphenyl]-[3-(difluoromethyl)-3-hydroxyazetidin-1-yl]methanone] | 7.5 nM | 4.3 nM | 9.7 nM
COc1cc(-c2c3c(C(F)F)cc(-c4cnn(CCS(C)(=O)=O)c4)cc3nn2C)cc(OC(F)F)c1C(=O)N1CC(O)(C(F)F)C1 [Example 66, [2-(difluoromethoxy)-4-[4-(difluoromethyl)-2-methyl-6-[1-(2-methylsulfonylethyl)pyrazol-4-yl)indazol-3-yl]-6-methoxyphenyl]-[3-(difluoromethyl)-3-hydroxyazetidin-1-yl]methanone] | 11.4 nM | 14.1 nM | 5.7 nM
COc1cc(-c2c3c(C(F)F)cc(-c4cnn(C[C@H](C)O)c4)cc3nn2C)cc(OC(F)F)c1C(=O)N1CC(O)(C(F)F)C1 [Example 67, [2-(difluoromethoxy)-4-[4-(difluoromethyl)-6-[1-[(2S)-2-hydroxypropyl]pyrazol-4-yl]-2-methylindazol-3-yl]-6-methoxyphenyl]-[3-(difluoromethyl)-3-hydroxyazetidin-1-yl]methanone] | 8.5 nM | 12.7 nM | 4.8 nM
COc1cc(-c2c3c(C(F)F)cc(-c4cn[nH]c4)cc3nn2C)cc(OC(F)F)c1C(=O)N1CC(O)(C(F)(F)F)C1 [Example 68, [2-(difluoromethoxy)-4-[4-(difluoromethyl)-2-methyl-6-(1H-pyrazol-4-yl)indazol-3-yl]-6-methoxyphenyl]-[3-hydroxy-3-(trifluoromethyl)azetidin-1-yl]methanone] | 9.4 nM | 14.2 nM | 2.5 nM
COc1cc(-c2c3c(C(F)F)cc(-c4cn[nH]c4)cc3nn2C)cc(OC(F)F)c1C(=O)N1CC(O)(C(F)F)C1 [Example 69, [2-(difluoromethoxy)-4-[4-(difluoromethyl)-2-methyl-6-(1H-pyrazol-4-yl)indazol-3-yl]-6-methoxyphenyl]-[3-(difluoromethyl)-3-hydroxyazetidin-1-yl]methanone] | 8.3 nM | 10.9 nM | 2 nM
COc1cc(-c2c3c(C#N)cc(-c4cn[nH]c4)cc3nn2C)cc(OC(F)F)c1C(=O)N1CC(O)(C(F)(F)F)C1 [Example 70, 3-[3-(difluoromethoxy)-4-[3-hydroxy-3-(trifluoromethyl)azetidin-1-carbonyl]-5-methoxyphenyl]-2-methyl-6-(1H-pyrazol-4-yl)indazole-4-carbonitrile] | 15.3 nM | 11.2 nM | 3.7 nM

The next lines start with the values.

IC50 (GST-tagged SIK1) | IC50 (GST-tagged SIK2) | IC50 (GST-tagged SIK3) | Compound
10.1 nM | 3.2 nM | 5.1 nM | COc1cc(-c2c3c(C#N)cc(-c4cnn(CCS(C)(=O)=O)c4)cc3nn2C)cc(OC(F)F)c1C(=O)NCC1(F)CC1 [Example 54, 4-[4-cyano-2-methyl-6-[1-(2-methylsulfonylethyl)pyrazol-4-yl]indazol-3-yl]-2-(difluoromethoxy)-N-[(1-fluorocyclopropyl)methyl]-6-methoxybenzamide]
20 nM | 16.1 nM | 11.8 nM | COc1cc(-c2c3c(C#N)cc(-c4cnn(CC(C)(C)O)c4)cc3nn2C)cc(OC(F)F)c1C(=O)NCC1(F)CC1 [Example 56]
16 nM | 10 nM | 9.2 nM | COc1cc(-c2c3c(C#N)cc(-c4cnn(C[C@@H](C)O)c4)cc3nn2C)cc(OC(F)F)c1C(=O)NCC1(F)CC1 [Example 57, 4-[4-cyano-6-[1-[(2R)-2-hydroxypropyl]pyrazol-4-yl]-2-methylindazol-3-yl]-2-(difluoromethoxy)-N-[(1-fluorocyclopropyl)methyl]-6-methoxybenzamide]
13.7 nM | 6.7 nM | 6.3 nM | COc1cc(-c2c3c(C#N)cc(-c4cnn(C[C@H](C)O)c4)cc3nn2C)cc(OC(F)F)c1C(=O)NCC1(F)CC1 [Example 58, 4-[4-cyano-6-[1-[(2S)-2-hydroxypropyl]pyrazol-4-yl]-2-methylindazol-3-yl]-2-(difluoromethoxy)-N-[(1-fluorocyclopropyl)methyl]-6-methoxybenzamide]
14.1 nM | 3.8 nM | 6.6 nM | COc1cc(-c2c3c(C#N)cc(-c4cnn(CC5COC5)c4)cc3nn2C)cc(OC(F)F)c1C(=O)NCC1(F)CC1 [Example 59, 4-[4-cyano-2-methyl-6-[1-(oxetan-3-ylmethyl)pyrazol-4-yl]indazol-3-yl]-2-(difluoromethoxy)-N-[(1-fluorocyclopropyl)methyl]-6-methoxybenzamide]
17.4 nM | 3.8 nM | 6.5 nM | COc1cc(-c2c3c(C#N)cc(-c4cnn(C)c4)cc3nn2C)cc(OC(F)F)c1C(N)=O [Example 73, 4-[4-cyano-2-methyl-6-(1-methylpyrazol-4-yl)indazol-3-yl]-2-(difluoromethoxy)-6-methoxybenzamide]
8.4 nM | 2.6 nM | 6.1 nM | COc1cc(-c2c3c(C#N)cc(-c4cnn(CC5CS(=O)(=O)C5)c4)cc3nn2C)cc(OC(F)F)c1C(=O)NCC1(F)CC1 [Example 74, 4-[4-cyano-6-[1-[(1,1-dioxothietan-3-yl)methyl]pyrazol-4-yl]-2-methylindazol-3-yl]-2-(difluoromethoxy)-N-[(1-fluorocyclopropyl)methyl]-6-methoxybenzamide]
14.8 nM | 2.7 nM | 13.3 nM | COc1cc(-c2c3c(C#N)cc(-c4cnn(Cc5ncco5)c4)cc3nn2C)cc(OC(F)F)c1C(=O)NCC1(F)CC1 [Example 75]
17.6 nM | 5.3 nM | 11.7 nM | COc1cc(-c2c3c(C#N)cc(-c4cnn(CC5(F)COC5)c4)cc3nn2C)cc(OC(F)F)c1C(=O)NCC1(F)CC1 [Example 76, 4-[4-cyano-6-[1-[(3-fluorooxetan-3-yl)methyl]pyrazol-4-yl]-2-methylindazol-3-yl]-2-(difluoromethoxy)-N-[(1-fluorocyclopropyl)methyl]-6-methoxybenzamide]
